Measured values: ChEMBL document CHEMBL6096667, “Design, synthesis and biological evaluation of biaryl amide derivatives as modulators of multi-drug resistance” (Eur J Med Chem, 2025)

Assays:
[1] = tested on: A2780/Taxol; assay: Inhibition of cell proliferation of human Paclitaxel-resistant A2780/T cells incubated for 48 hrs in presence of PTX by MTT assay; type: functional, cell-based
[2] = tested on: A2780/Taxol; assay: Inhibition of cell proliferation of human Paclitaxel-resistant A2780/T cells at 1 uM incubated for 48 hrs in presence of PTX by MTT assay relative to control; type: functional
[3] = tested on: A2780/Taxol; assay: Inhibition of cell proliferation of human Paclitaxel-resistant A2780/T cells at 10 uM incubated for 48 hrs in presence of PTX by MTT assay relative to control; type: functional
[4] = tested on: A2780/Taxol; assay: Reversal of paclitaxel resistance in human Paclitaxel-resistant A2780/T cells assessed as reversal fold by measuring ratio of paclitaxel IC50 to paclitaxel IC50 in presence of test compound at 1 uM incubated for 48 hrs by MTT assay; type: functional
[5] = tested on: A2780/Taxol; assay: Inhibition of cell proliferation of human Paclitaxel-resistant A2780/T cells at 0.01 uM incubated for 48 hrs in presence of PTX by MTT assay relative to control; type: functional
[6] = tested on: A2780/Taxol; assay: Inhibition of cell proliferation of human Paclitaxel-resistant A2780/T cells at 0.1 uM incubated for 48 hrs in presence of PTX by MTT assay relative to control; type: functional
[7] = Inhibition of cell proliferation of human A2780/CDDP cells by MTT assay; type: functional, cell-based
[8] = Inhibition of cell proliferation of human CDDP-resistant A549 cells by MTT assay; type: functional, cell-based
[9] = Reversal of paclitaxel resistance in human A2780/CDDP cells assessed as reversal fold by measuring ratio of paclitaxel IC50 to paclitaxel IC50 in presence of test compound by MTT assay; type: functional
[10] = Reversal of paclitaxel resistance in human CDDP-resistant A549 cells assessed as reversal fold by measuring ratio of paclitaxel IC50 to paclitaxel IC50 in presence of test compound by MTT assay; type: functional, CDDP-resistant A549 cell
[11] = tested on: A2780/Taxol; assay: Reversal of paclitaxel resistance in human Paclitaxel-resistant A2780/T cells by MTT assay; type: functional, cell-based
[12] = molecular target: ATP-dependent translocase ABCB1 (Homo sapiens, UniProt P08183); assay: Binding affinity to CM5 sensor chip-immobilized human P-gp assessed as dissociation constant by SPR analysis
Sequence of ATP-dependent translocase ABCB1 (P08183 whole entry): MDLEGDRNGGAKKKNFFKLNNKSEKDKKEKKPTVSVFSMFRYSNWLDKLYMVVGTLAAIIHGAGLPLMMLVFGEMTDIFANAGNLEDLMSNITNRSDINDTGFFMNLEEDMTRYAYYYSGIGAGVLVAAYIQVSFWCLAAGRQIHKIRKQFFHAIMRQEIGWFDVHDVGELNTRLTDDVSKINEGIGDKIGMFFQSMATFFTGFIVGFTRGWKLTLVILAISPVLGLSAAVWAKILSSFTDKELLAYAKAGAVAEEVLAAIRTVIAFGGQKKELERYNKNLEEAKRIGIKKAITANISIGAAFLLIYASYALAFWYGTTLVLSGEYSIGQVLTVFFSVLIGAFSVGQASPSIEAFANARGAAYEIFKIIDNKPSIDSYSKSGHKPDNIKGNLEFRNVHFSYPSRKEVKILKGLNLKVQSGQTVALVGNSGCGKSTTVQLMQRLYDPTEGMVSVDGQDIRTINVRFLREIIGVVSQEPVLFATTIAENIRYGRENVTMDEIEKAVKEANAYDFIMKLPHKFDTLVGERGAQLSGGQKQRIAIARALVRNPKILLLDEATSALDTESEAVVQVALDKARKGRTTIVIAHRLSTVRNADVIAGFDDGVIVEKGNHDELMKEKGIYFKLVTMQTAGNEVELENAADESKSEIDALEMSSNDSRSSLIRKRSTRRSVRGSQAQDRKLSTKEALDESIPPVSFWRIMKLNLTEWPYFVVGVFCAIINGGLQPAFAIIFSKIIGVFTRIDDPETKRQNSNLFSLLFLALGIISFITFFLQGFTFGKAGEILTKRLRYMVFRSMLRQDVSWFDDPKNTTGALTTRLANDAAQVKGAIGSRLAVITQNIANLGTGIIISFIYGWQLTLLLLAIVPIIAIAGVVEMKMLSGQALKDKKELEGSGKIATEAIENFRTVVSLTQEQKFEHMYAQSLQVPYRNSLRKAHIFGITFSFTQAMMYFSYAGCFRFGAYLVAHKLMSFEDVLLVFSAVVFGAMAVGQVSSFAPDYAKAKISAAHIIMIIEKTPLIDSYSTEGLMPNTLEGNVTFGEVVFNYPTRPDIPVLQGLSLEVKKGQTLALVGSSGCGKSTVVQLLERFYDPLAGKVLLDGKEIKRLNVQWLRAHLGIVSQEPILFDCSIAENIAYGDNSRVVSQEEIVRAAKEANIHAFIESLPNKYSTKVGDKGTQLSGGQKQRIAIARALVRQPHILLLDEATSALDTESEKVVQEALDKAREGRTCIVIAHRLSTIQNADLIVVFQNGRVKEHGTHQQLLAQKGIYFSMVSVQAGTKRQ

Compound | IC50 [1] [µM] | inhibition at 1 µM [2] [%] | inhibition at 10 µM [3] [%] | inhibition at 0.01 µM [5] [%] | inhibition at 0.1 µM [6] [%] | also measured
COc1ccc(-c2ccc(CNC(=O)c3cn(C)c4ccccc34)nc2)cc1F | > 50 | 40 | 71 | – | – | Ratio IC50 [4]: 78
COc1ccc(CCN(C)CCCC(C#N)(c2ccc(OC)c(OC)c2)C(C)C)cc1OC (stereo unspecified) | – | 57 | 76 | 22 | 47 | –
Cn1cc(C(=O)NCc2ccc(-c3ccco3)cn2)c2ccccc21 | > 50 | 20 | 32 | – | – | –
CC(=O)O[C@H]1C(=O)[C@@]2(C)[C@H]([C@H](OC(=O)c3ccccc3)[C@]3(O)C[C@H](OC(=O)[C@H](O)[C@@H](NC(=O)c4ccccc4)c4ccccc4)C(C)=C1C3(C)C)[C@]1(OC(C)=O)CO[C@@H]1C[C@@H]2O [PACLITAXEL] | 14.1 | 9 | 35 | 9 | 35 | IC50 [7]: 55.2 µM; IC50 [8]: 27.2 µM
COc1ccc(-c2ccc(CNC(=O)c3cn(C)c4ccccc34)nc2)c(OC)c1 | > 50 | 36 | 80 | – | – | Ratio IC50 [4]: 38
N#Cc1cc(-c2ccccc2)cnc1NC(=O)c1cccnc1 | 0.08 | – | – | 35 | 59 | –
Cn1cc(C(=O)NCc2ccc(-c3ccc4c(c3)c3ccccc3n4-c3ccccc3)cn2)c2ccccc21 | > 50 | 14 | 28 | – | – | –
O=C(Nc1ccc(-c2ccccc2)c(F)c1F)c1cccnc1 | 0.78 | – | – | 27 | 46 | –
O=C(Nc1ccc(-c2ccccc2)cn1)c1cccnc1 | 0.88 | – | – | 28 | 55 | –
O=C(Nc1ccc(-c2ccccc2)c([N+](=O)[O-])c1)c1cccnc1 | 11.2 | – | – | 25 | 37 | –
O=C(Cc1cccnc1)NCc1ccc(-c2ccccc2)cn1 | > 50 | 33 | 42 | – | – | –
O=C(Cc1cccnc1)Nc1ccc(-c2ccccc2)cn1 | > 50 | 39 | 34 | – | – | –
O=C(NCc1ccc(-c2ccccc2)cn1)c1ccc(Br)nc1 | > 50 | 12 | 37 | – | – | –
O=C(Nc1ccc(-c2ccccc2)c2nonc12)c1cccnc1 | 3.09 | – | – | 14 | 33 | –
Cn1cc(C(=O)NCc2ccc(-c3cccc4ccccc34)cn2)c2ccccc21 | > 50 | 46 | 83 | – | – | Ratio IC50 [4]: 138; Ratio IC50 [9]: 6; Ratio IC50 [10]: 4; EC50 [11]: 0.126 µM
Cn1cccc1C(=O)NCc1ccc(-c2ccccc2)cn1 | > 50 | 10 | 30 | – | – | –
O=C(NCc1ccc(-c2ccccc2)cn1)c1cccnc1 | 30.5 | 32 | 65 | – | – | –
Cn1c(C(=O)NCc2ccc(-c3ccccc3)cn2)cc2ccccc21 | > 50 | 11 | 37 | – | – | –
Cn1cc(C(=O)NCc2ccc(-c3ccc(OCc4ccccc4)cc3)cn2)c2ccccc21 | > 50 | 41 | 78 | – | – | Ratio IC50 [4]: 54
Cn1cc(C(=O)NCc2ccc(-c3cccs3)cn2)c2ccccc21 | > 50 | 6 | 80 | – | – | Ratio IC50 [4]: 47
O=C(/C=C/c1cccnc1)NCc1ccc(-c2ccccc2)cn1 | 22.1 | 33 | 38 | – | – | –
CCCCc1ccc(-c2ccc(CNC(=O)c3cn(C)c4ccccc34)nc2)cc1 | > 50 | 37 | 52 | – | – | –
Cn1cc(C(=O)NCc2ccc(-c3ccc(F)cc3)cn2)c2ccccc21 | > 50 | 25 | 63 | – | – | –

Compound | IC50 [1] [µM] | inhibition at 1 µM [2] [%] | inhibition at 10 µM [3] [%] | inhibition at 0.01 µM [5] [%] | inhibition at 0.1 µM [6] [%] | also measured
O=C(Nc1ncc(-c2ccccc2)cc1O)c1cccnc1 | 2.11 | – | – | 11 | 38 | –
Cn1cc(C(=O)NCc2ccc(-c3ccccc3)cn2)c2ccccc21 | > 50 | 30 | 81 | – | – | Ratio IC50 [4]: 18; Ratio IC50 [9]: 5; Ratio IC50 [10]: 3; Kd [12]: 1.66 µM
O=C(Nc1ccc(-c2ccccc2)cc1)c1cccnc1 | 12.6 | – | – | 29 | 37 | –
O=C(Nc1ncc(-c2ccccc2)cc1F)c1cccnc1 | 0.32 | – | – | 11 | 50 | –
O=C(NCc1ccc(-c2ccccc2)cn1)c1ccc(F)c(F)c1 | 20 | 22 | 46 | – | – | –
O=C(Nc1ccc(-c2ccccc2)nc1)c1cccnc1 | 13.6 | – | – | 9 | 33 | –
O=S(=O)(Nc1ccc(-c2ccccc2)cn1)c1cccnc1 | 18.7 | 7 | 37 | – | – | –
O=C(NCc1ccc(-c2ccccc2)cn1)c1cncnc1 | 32.7 | 24 | 61 | – | – | –
O=C(NCc1ccc(-c2ccccc2)cn1)c1ccc(C(F)(F)F)nc1 | > 50 | 9 | 31 | – | – | –
O=C(NCc1ccc(-c2ccccc2)cn1)c1c(F)c(F)c(F)c(F)c1F | > 50 | 13 | 39 | – | – | –
O=C(Nc1nc(-c2ccccc2)co1)c1cccnc1 | 10.1 | – | – | 11 | 30 | –
Cc1ccc(C(=O)NCc2ccc(-c3ccccc3)cn2)cn1 | > 50 | 12 | 35 | – | – | –
O=C(Nc1ccc(-c2ccccc2)c2cccnc12)c1cccnc1 | 33.2 | – | – | 6 | 39 | –
O=C(Nc1cccnc1)Nc1ccc(-c2ccccc2)cn1 | > 50 | 10 | 30 | – | – | –
O=C(NCc1ccc(-c2ccccc2)cn1)c1ccc2cccnc2c1 | 18.3 | 31 | 67 | – | – | –
Cn1cc(C(=O)NCc2ccc(-c3cccc(F)c3)cn2)c2ccccc21 | > 50 | 8 | 33 | – | – | –
COc1cc(C(=O)NCc2ccc(-c3ccccc3)cn2)cc(OC)c1OC | 22.9 | 10 | 51 | – | – | –
Cn1cc(C(=O)NCc2ccc(-c3cnc4ccccc4c3)cn2)c2ccccc21 | > 50 | 46 | 76 | – | – | Ratio IC50 [4]: 9
O=C(Nc1c(F)c(F)c(-c2ccccc2)c(F)c1F)c1cccnc1 | 0.8 | – | – | 25 | 46 | –
O=C(Nc1ccc(-c2ccccc2)cc1[N+](=O)[O-])c1cccnc1 | 0.027 | – | – | 48 | 74 | –
O=C(Nc1ccc(-c2ccccc2)cc1OC(F)(F)F)c1cccnc1 | 3.54 | – | – | 31 | 42 | –
O=C(Nc1ccc(-c2ccccc2)c2ccccc12)c1cccnc1 | 19 | – | – | 31 | 35 | –
O=C(Nc1ncc(-c2ccccc2)cn1)c1cccnc1 | 0.11 | – | – | 34 | 49 | –
